Test results from US12286442B2, “Methods and materials for increasing transcription factor eb polypeptide levels” (University of Pittsburgh—Of the Commonwealth System of …, priority 2019, dated 2025).

Assays:
TFEB = experiment: High content screen measuring TFEB nuclear accumulation (TFEB nuclear/cytosol ratio) in BEAS-2B cells stably expressing TFEB-EGFP; type: cell-based, human; details: 18 hours incubation
Experimental: FIG. 3. High content screen assay (384 well) measuring TFEB nuclear accumulation. Approximately 2500 primary and immortalized human bronchial epithelial cells (BEAS-2B) stably expressing TFEB-EGFP in 25 μL of HITEs media with 10% FBS were dispensed into 384 well plate (Black with glass bottom) and incubated for 8 hours. Compound serial dilution (DMEM low glucose media with 2% FBS, 25 μL volume) were prepared using a robotic liquid hander. Compound solutions were then added to the cell plate and incubated for 18 hours. Cells were then fixed with 4% PFA followed by DAPI staining. TFEB localization was imaged on the GFP channel along with the DAPI signal using a Cytation 5 high content imager. Images were processed through Biotek Gen5 software; specifically, the DAPI signal was used as the primary mask to quantify the nuclear TFEB-GFP signal. The cytosolic TFEB-GFP signal was quantified through expanding the primary mask. The TFEB nuclear/cytosol ratios were calculated from nuclear TFEB-GFP signal/cytosol TFEB-GFP signal, which determined the compound efficacy. […] Compound activities (μM) were determined by the minimal compound concentration needed to increase TFEB nuclear/cytosol ratio by 25%. Activity: “−” equals >25 μM; “+” equals between 25 μM and >10 μM; “++” equals between ≤10 μM and >1 μM; and “+++” equals […]. N=4.
(§1) Approximately 2300 primary and immortalized human bronchial epithelial cells (BEAS-2B) stably expressing TFEB-EGFP in 25 μL of HITEs media with 10% FBS were dispensed into 384 well plate (Black with glass bottom) and incubated for 8 hours. Compound serial dilution (DMEM low glucose media with 2% FBS, 25 μL volume) were prepared using a robotic liquid hander. Compound solution were then added to the cell plate and incubated for 18 hours. Cells were then fixed with 4% PFA followed by DAPI staining. TFEB localization was imaged on the GFP channel along with the DAPI signal using a Cytation 5 high content imager. Images were processed through Biotek Gen5 software. Specifically, the DAPI signal was used as the primary mask to quantify the nuclear TFEB-GFP signal. Cytosolic TFEB-GFP signal was quantified through expanding the primary mask. The TFEB nuclear/cytosol ratios were calculated from nuclear TFEB-GFP signal/cytosol TFEB-GFP signal, which determined the compound efficacies.
Compounds efficacies (μM) were determined by the minimal compound concentration needed to increase TFEB nuclear/cytosol ratio by 25%. Activity: “+” equals >25 μM; “++” equals between ≤25 μM and >1 μM; and “+++” equals ≤1 μM.
A high-content imaging screen was conducted using Beas2B cells that stably express GFP-TFEB.

BEAS-2B cells = experiment: Toxicity: compound concentration needed to induce greater than 50 percent of cell loss; type: cell-based, human; details: 18 hours incubation
Experimental: as §1
Toxicity was determined by determining the compound concentration needed to induce greater than 50 percent of cell loss. For toxicity, cell loss of greater than 50 percent at a concentration that equals or is greater than 25 μM was represented as cell loss of greater than 50 percent at a concentration less than 25 μM and greater than 1 μM was represented as and cell loss of greater than 50 percent at a concentration that equals or is less than 1 μM was represented as “+++.” The assay results for compounds 1-202, 214-248, 332, 333, and 352-402 are shown in Table A.

| Structure (SMILES) | efficacy (minimal compound concentration needed to increase TFEB nuclear/cytosol ratio by 25%) (TFEB) | toxicity (compound concentration needed to induce greater than 50 percent of cell loss) (BEAS-2B cells) |
| --- | --- | --- |
| Fc1cc(-c2nc(Nc3ccc4[nH]ncc4c3)c3ccccc3n2)ccn1 [Compound 47] | +++ (“+++” equals ≤1 μM) | +++ (cell loss of greater than 50 percent at a concentration that equals or is less than 1 μM was represented as “+++.”) |
| c1ccc2c(Nc3ccc4[nH]ncc4c3)nc(-c3ccncc3)cc2c1 [Compound 48] | + (“+” equals >25 μM) | + (cell loss of greater than 50 percent at a concentration that equals or is greater than 25 μM was represented as) |
| c1ccc2c(Nc3ccc4[nH]ccc4c3)nc(-c3ccncc3)cc2c1 [Compound 49] | + (“+” equals >25 μM) | + (cell loss of greater than 50 percent at a concentration that equals or is greater than 25 μM was represented as) |
| c1ccc2c(Nc3ccc4[nH]ncc4c3)nc(N3CCNCC3)nc2c1 [Compound 50] | + (“+” equals >25 μM) | + (cell loss of greater than 50 percent at a concentration that equals or is greater than 25 μM was represented as) |
| CC(=O)c1cc(F)cc(Nc2nc(-c3ccncc3)nc3ccccc23)c1 [Compound 51] | + (“+” equals >25 μM) | + (cell loss of greater than 50 percent at a concentration that equals or is greater than 25 μM was represented as) |
| CC(=O)c1cc(C)cc(Nc2nc(-c3ccncc3)nc3ccccc23)c1 [Compound 52] | + (“+” equals >25 μM) | + (cell loss of greater than 50 percent at a concentration that equals or is greater than 25 μM was represented as) |
| Cc1cc(F)cc(Nc2nc(-c3ccncc3C)nc3ccccc23)c1 [Compound 53] | + (“+” equals >25 μM) | + (cell loss of greater than 50 percent at a concentration that equals or is greater than 25 μM was represented as) |
| Cc1cccc(Nc2nc(-c3ccncc3C)nc3ccccc23)c1 [Compound 54] | + (“+” equals >25 μM) | + (cell loss of greater than 50 percent at a concentration that equals or is greater than 25 μM was represented as) |
| Cc1cc(Br)cc(Nc2nc(-c3ccncc3)nc3ccccc23)c1 [Compound 55] | + (“+” equals >25 μM) | + (cell loss of greater than 50 percent at a concentration that equals or is greater than 25 μM was represented as) |
| Nc1ccc(Nc2nc(-c3ccncc3)nc3ccccc23)cc1 [Compound 56] | ++ (“++” equals between ≤25 μM and >1 μM) | + (cell loss of greater than 50 percent at a concentration that equals or is greater than 25 μM was represented as) |
| c1cnc2ccc(Nc3nc(-c4ccncc4)nc4ccccc34)cc2c1 [Compound 57] | +++ (“+++” equals ≤1 μM) | + (cell loss of greater than 50 percent at a concentration that equals or is greater than 25 μM was represented as) |
| Cc1cc(Nc2nc(-c3ccncc3)nc3ccccc23)ccc1N [Compound 58] | ++ (“++” equals between ≤25 μM and >1 μM) | + (cell loss of greater than 50 percent at a concentration that equals or is greater than 25 μM was represented as) |
| CNc1ccc(Nc2nc(-c3ccncc3)nc3ccccc23)cc1 [Compound 59] | ++ (“++” equals between ≤25 μM and >1 μM) | + (cell loss of greater than 50 percent at a concentration that equals or is greater than 25 μM was represented as) |
| NC1CCC(Nc2nc(-c3ccncc3)nc3ccccc23)CC1 (stereo not shown) [Compound 60] | + (“+” equals >25 μM) | + (cell loss of greater than 50 percent at a concentration that equals or is greater than 25 μM was represented as) |
| Cc1c(Nc2nc(-c3ccncc3)nc3ccccc23)ccc2[nH]ccc12 [Compound 61] | +++ (“+++” equals ≤1 μM) | ++ (cell loss of greater than 50 percent at a concentration less than 25 μM and greater than 1 μM was represented as) |
| Cc1cc2cc(Nc3nc(-c4ccncc4)nc4ccccc34)ccc2[nH]1 [Compound 62] | +++ (“+++” equals ≤1 μM) | +++ (cell loss of greater than 50 percent at a concentration that equals or is less than 1 μM was represented as “+++.”) |
| Oc1ccc(-c2nc(Nc3ccc4[nH]ccc4c3)c3ccccc3n2)cc1 [Compound 63] | + (“+” equals >25 μM) | + (cell loss of greater than 50 percent at a concentration that equals or is greater than 25 μM was represented as) |
| Oc1ccc(-c2nc(Nc3ccc4[nH]ncc4c3)c3ccccc3n2)cc1 [Compound 64] | ++ (“++” equals between ≤25 μM and >1 μM) | ++ (cell loss of greater than 50 percent at a concentration less than 25 μM and greater than 1 μM was represented as) |
| Oc1ccc(-c2nc(Nc3cccc(F)c3)c3ccccc3n2)cc1 [Compound 65] | + (“+” equals >25 μM) | + (cell loss of greater than 50 percent at a concentration that equals or is greater than 25 μM was represented as) |
| [O-][n+]1ccc(-c2nc(Nc3ccc4[nH]ccc4c3)c3ccccc3n2)cc1 [Compound 66] | + (“+” equals >25 μM) | + (cell loss of greater than 50 percent at a concentration that equals or is greater than 25 μM was represented as) |
| c1ccc2c(Nc3ccc4[nH]ccc4c3)cc(-c3ccncc3)nc2c1 [Compound 67] | + (“+” equals >25 μM) | + (cell loss of greater than 50 percent at a concentration that equals or is greater than 25 μM was represented as) |
| c1ccc2c(Nc3ccc4[nH]ncc4c3)cc(-c3ccncc3)nc2c1 [Compound 68] | + (“+” equals >25 μM) | + (cell loss of greater than 50 percent at a concentration that equals or is greater than 25 μM was represented as) |
| Fc1cccc(Nc2cc(-c3ccncc3)nc3ccccc23)c1 [Compound 69] | + (“+” equals >25 μM) | + (cell loss of greater than 50 percent at a concentration that equals or is greater than 25 μM was represented as) |
